Experimental data taken from PubChem BioAssay AID2060615 (Molecular Pharmacology Branch, DTP, NCI, 2025).

System: 496974-208-R-J2-PDC complex spheroids, growth % test/control
Experiment: Anticancer human tumor 496974-208-R-J2-PDC patient-derived pancreatic carcinoma cell line growth inhibition [CLK]
Settings: for IC50: curve of first compound; for viability, T/C: stronger effect = lower value
Method in brief: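 Patient-derived tumor cells grown as complex spheroids with HUVEC endothelial cells and mesenchymal stem cells, treated with drug combinations. Concentrations descend in half-log steps from near clinical Cmax, or from 10 microM if Cmax unknown.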
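Further: spheroids exposed to the drugs for 7 days before readout.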
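Wherever viability, T/C is given: 100% = DMSO vehicle control wells.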

## C=CC(=O)Nc1cc(Nc2nccc(-c3cn(C)c4ccccc34)n2)c(OC)cc1N(C)CCN(C)C + CN1CCN(c2cc(C(=O)Nc3cc4cc(-c5cnn(C)c5)ccc4cn3)ccn2)CC1
Second compound 0.0316 µM
  IC50: > 300 nM
Second compound 0.1 µM
  IC50: > 300 nM
Second compound 0.316 µM
  IC50: < 0.949 nM
Second compound 1 µM
  IC50: < 0.949 nM
Second compound 3.16 µM
  IC50: < 0.949 nM
Second compound 10 µM
  IC50: < 0.949 nM
Second compound 0.0316 µM, first compound 0.000949 µM
  viability, T/C: 104%
Second compound 0.0316 µM, first compound 0.003 µM
  viability, T/C: 100%
Second compound 0.0316 µM, first compound 0.00949 µM
  viability, T/C: 94.9%
Second compound 0.0316 µM, first compound 0.03 µM
  viability, T/C: 86.5%
Second compound 0.0316 µM, first compound 0.0949 µM
  viability, T/C: 85.7%
Second compound 0.0316 µM, first compound 0.3 µM
  viability, T/C: 60.6%
Second compound 0.1 µM, first compound 0.000949 µM
  viability, T/C: 77.1%
Second compound 0.1 µM, first compound 0.003 µM
  viability, T/C: 86.2%
Second compound 0.1 µM, first compound 0.00949 µM
  viability, T/C: 80.8%
Second compound 0.1 µM, first compound 0.03 µM
  viability, T/C: 74.3%
Second compound 0.1 µM, first compound 0.0949 µM
  viability, T/C: 70.8%
Second compound 0.1 µM, first compound 0.3 µM
  viability, T/C: 50%
Second compound 0.316 µM, first compound 0.000949 µM
  viability, T/C: 6.91%
Second compound 0.316 µM, first compound 0.003 µM
  viability, T/C: 7.98%
Second compound 0.316 µM, first compound 0.00949 µM
  viability, T/C: 5.85%
Second compound 0.316 µM, first compound 0.03 µM
  viability, T/C: 4.61%
Second compound 0.316 µM, first compound 0.0949 µM
  viability, T/C: 6.12%
Second compound 0.316 µM, first compound 0.3 µM
  viability, T/C: 4.42%
Second compound 1 µM, first compound 0.000949 µM
  viability, T/C: 0.32%
Second compound 1 µM, first compound 0.003 µM
  viability, T/C: 0.55%
Second compound 1 µM, first compound 0.00949 µM
  viability, T/C: 1.29%
Second compound 1 µM, first compound 0.03 µM
  viability, T/C: 0.51%
Second compound 1 µM, first compound 0.0949 µM
  viability, T/C: 2.8%
Second compound 1 µM, first compound 0.3 µM
  viability, T/C: 0.65%
Second compound 3.16 µM, first compound 0.000949 µM
  viability, T/C: 0.42%
Second compound 3.16 µM, first compound 0.003 µM
  viability, T/C: 1.96%
Second compound 3.16 µM, first compound 0.00949 µM
  viability, T/C: 1.14%
Second compound 3.16 µM, first compound 0.03 µM
  viability, T/C: 0.42%
Second compound 3.16 µM, first compound 0.0949 µM
  viability, T/C: 2.24%
Second compound 3.16 µM, first compound 0.3 µM
  viability, T/C: 1.33%
Second compound 10 µM, first compound 0.000949 µM
  viability, T/C: 0.31%
Second compound 10 µM, first compound 0.003 µM
  viability, T/C: 0.31%
Second compound 10 µM, first compound 0.00949 µM
  viability, T/C: 0.31%
Second compound 10 µM, first compound 0.03 µM
  viability, T/C: 0.85%
Second compound 10 µM, first compound 0.0949 µM
  viability, T/C: 2.25%
Second compound 10 µM, first compound 0.3 µM
  viability, T/C: 2.99%
